# Reference: US11078202B2, “β-lactamase inhibitor and use thereof” (priority 2018, dated 2021)
# Structures can show the parent of a compound that is named as a salt.
# Assays:
# Format in all cases: cell-based
# [1] = system: Acinetobacter baumannii XNWB 0007; experiment: MIC assay of test compounds combined with ceftazidime (8 μg/mL); settings: ceftazidime 8 μg/mL fixed
# How it was run: (§1)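 Colonies from 20-24 h TSA plates (35±2 °C) → saline, OD600 0.1-0.15 → 300-fold dilution in 1.1×CAMHB → added to compound plus fixed antibiotic wells, growth and sterility controls included → 16-20 h at 35±2 °C → MIC by CLSI criteria.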
# [2] = system: Klebsiella pneumoniae XNWB 0001; experiment: as above; settings: ceftazidime 8 μg/mL fixed
# How it was run: as §1
# [3] = system: Klebsiella pneumoniae XNWB 0002; experiment: as above; settings: ceftazidime 8 μg/mL fixed
# How it was run: as §1
# [4] = system: Klebsiella pneumoniae XNWB 0003; experiment: as above; settings: ceftazidime 8 μg/mL fixed
# How it was run: as §1
# [5] = system: Klebsiella pneumoniae XNWB 0004; experiment: as above; settings: ceftazidime 8 μg/mL fixed
# How it was run: as §1
# [6] = system: Klebsiella pneumoniae XNWB 0005; experiment: as above; settings: ceftazidime 8 μg/mL fixed
# How it was run: as §1
# [7] = system: Klebsiella pneumoniae XNWB 0006; experiment: as above; settings: ceftazidime 8 μg/mL fixed
# How it was run: as §1
# [8] = system: Pseudomonas aeruginosa XNWB 0008; experiment: as above; settings: ceftazidime 8 μg/mL fixed
# How it was run: as §1
# [9] = system: Acinetobacter baumannii XNWB 0007; experiment: MIC assay of test compounds combined with imipenem (4 μg/mL); settings: imipenem 4 μg/mL fixed
# How it was run: as §1
# [10] = system: Klebsiella pneumoniae XNWB 0001; experiment: as above; settings: imipenem 4 μg/mL fixed
# How it was run: as §1
# [11] = system: Klebsiella pneumoniae XNWB 0002; experiment: as above; settings: imipenem 4 μg/mL fixed
# How it was run: as §1
# [12] = system: Klebsiella pneumoniae XNWB 0003; experiment: as above; settings: imipenem 4 μg/mL fixed
# How it was run: as §1
# [13] = system: Klebsiella pneumoniae XNWB 0004; experiment: as above; settings: imipenem 4 μg/mL fixed
# How it was run: as §1
# [14] = system: Klebsiella pneumoniae XNWB 0005; experiment: as above; settings: imipenem 4 μg/mL fixed
# How it was run: as §1
# [15] = system: Klebsiella pneumoniae XNWB 0006; experiment: as above; settings: imipenem 4 μg/mL fixed
# How it was run: as §1
# [16] = system: Pseudomonas aeruginosa XNWB 0008; experiment: as above; settings: imipenem 4 μg/mL fixed
# How it was run: as §1
structure (smiles),measurement,setting,value
"O=C1N2C[C@H](N1OS(=O)(=O)O)C1(CC1)C[C@H]2c1nnc(CC2CNC2)o1 [Example 23, (1R,4S)-4-(5-(azetidin-3-ylmethyl)-1,3,4-oxadiazol-2-yl)-6-oxo-5,7-diazaspiro[bicycle [3.2.1]octane-2,1′-cyclopropan]-7-yl sulfate]",The minimum concentration of test compounds combined with ceftazidime (8 μg/mL) for bacteriostasis,[1],C (C: 16-128 μg/mL)
same,The minimum concentration of test compounds combined with ceftazidime (8 μg/mL) for bacteriostasis,[2],A (A: <8 μg/mL)
same,The minimum concentration of test compounds combined with ceftazidime (8 μg/mL) for bacteriostasis,[3],A (A: <8 μg/mL)
same,The minimum concentration of test compounds combined with ceftazidime (8 μg/mL) for bacteriostasis,[4],A (A: <8 μg/mL)
same,The minimum concentration of test compounds combined with ceftazidime (8 μg/mL) for bacteriostasis,[5],A (A: <8 μg/mL)
same,The minimum concentration of test compounds combined with ceftazidime (8 μg/mL) for bacteriostasis,[6],A (A: <8 μg/mL)
same,The minimum concentration of test compounds combined with ceftazidime (8 μg/mL) for bacteriostasis,[7],A (A: <8 μg/mL)
same,The minimum concentration of test compounds combined with ceftazidime (8 μg/mL) for bacteriostasis,[8],B (B: 8-16 μg/mL)
same,The minimum concentration of test compounds combined with imipenem (4 μg/mL) for bacteriostasis,[9],B (B: 8-16 μg/mL)
same,The minimum concentration of test compounds combined with imipenem (4 μg/mL) for bacteriostasis,[10],A (A: <8 μg/mL)
same,The minimum concentration of test compounds combined with imipenem (4 μg/mL) for bacteriostasis,[11],A (A: <8 μg/mL)
same,The minimum concentration of test compounds combined with imipenem (4 μg/mL) for bacteriostasis,[12],A (A: <8 μg/mL)
same,The minimum concentration of test compounds combined with imipenem (4 μg/mL) for bacteriostasis,[13],A (A: <8 μg/mL)
same,The minimum concentration of test compounds combined with imipenem (4 μg/mL) for bacteriostasis,[14],A (A: <8 μg/mL)
same,The minimum concentration of test compounds combined with imipenem (4 μg/mL) for bacteriostasis,[15],A (A: <8 μg/mL)
same,The minimum concentration of test compounds combined with imipenem (4 μg/mL) for bacteriostasis,[16],A (A: <8 μg/mL)
"NCc1cc([C@@H]2CC3(CC3)[C@@H]3CN2C(=O)N3OS(=O)(=O)O)no1 [Example 35, (1R,4S)-4-(5-(aminomethyl)-isoxazol-3-yl)-6-oxo-5,7-diazaspiro[bicyclo[3.2.1]octane-2,1′-cyclopropan]-7-yl sulfate]",The minimum concentration of test compounds combined with ceftazidime (8 μg/mL) for bacteriostasis,[1],C (C: 16-128 μg/mL)
same,The minimum concentration of test compounds combined with ceftazidime (8 μg/mL) for bacteriostasis,[2],A (A: <8 μg/mL)
same,The minimum concentration of test compounds combined with ceftazidime (8 μg/mL) for bacteriostasis,[3],A (A: <8 μg/mL)
same,The minimum concentration of test compounds combined with ceftazidime (8 μg/mL) for bacteriostasis,[4],A (A: <8 μg/mL)
same,The minimum concentration of test compounds combined with ceftazidime (8 μg/mL) for bacteriostasis,[5],A (A: <8 μg/mL)
same,The minimum concentration of test compounds combined with ceftazidime (8 μg/mL) for bacteriostasis,[6],A (A: <8 μg/mL)
same,The minimum concentration of test compounds combined with ceftazidime (8 μg/mL) for bacteriostasis,[7],A (A: <8 μg/mL)
same,The minimum concentration of test compounds combined with ceftazidime (8 μg/mL) for bacteriostasis,[8],C (C: 16-128 μg/mL)
same,The minimum concentration of test compounds combined with imipenem (4 μg/mL) for bacteriostasis,[9],C (C: 16-128 μg/mL)
same,The minimum concentration of test compounds combined with imipenem (4 μg/mL) for bacteriostasis,[10],A (A: <8 μg/mL)
same,The minimum concentration of test compounds combined with imipenem (4 μg/mL) for bacteriostasis,[11],A (A: <8 μg/mL)
same,The minimum concentration of test compounds combined with imipenem (4 μg/mL) for bacteriostasis,[12],A (A: <8 μg/mL)
same,The minimum concentration of test compounds combined with imipenem (4 μg/mL) for bacteriostasis,[13],A (A: <8 μg/mL)
same,The minimum concentration of test compounds combined with imipenem (4 μg/mL) for bacteriostasis,[14],A (A: <8 μg/mL)
same,The minimum concentration of test compounds combined with imipenem (4 μg/mL) for bacteriostasis,[15],A (A: <8 μg/mL)
same,The minimum concentration of test compounds combined with imipenem (4 μg/mL) for bacteriostasis,[16],B (B: 8-16 μg/mL)
"N=C(N)NCC(O)c1cc([C@@H]2CC3(CC3)[C@@H]3CN2C(=O)N3OS(=O)(=O)O)no1 (stereo partly drawn) [Example 38, (1R,4S)-4-(5-(2-guanidyl-1-hydroxyethyl)isoxazol-3-yl)-6-oxo-5,7-diazaspiro[bicycle [3.2.1]octane-2,1′-cyclopropan]-7-yl sulfate]",The minimum concentration of test compounds combined with ceftazidime (8 μg/mL) for bacteriostasis,[1],C (C: 16-128 μg/mL)
same,The minimum concentration of test compounds combined with ceftazidime (8 μg/mL) for bacteriostasis,[2],A (A: <8 μg/mL)
same,The minimum concentration of test compounds combined with ceftazidime (8 μg/mL) for bacteriostasis,[3],A (A: <8 μg/mL)
same,The minimum concentration of test compounds combined with ceftazidime (8 μg/mL) for bacteriostasis,[4],A (A: <8 μg/mL)
same,The minimum concentration of test compounds combined with ceftazidime (8 μg/mL) for bacteriostasis,[5],A (A: <8 μg/mL)
same,The minimum concentration of test compounds combined with ceftazidime (8 μg/mL) for bacteriostasis,[6],A (A: <8 μg/mL)
same,The minimum concentration of test compounds combined with ceftazidime (8 μg/mL) for bacteriostasis,[7],A (A: <8 μg/mL)
same,The minimum concentration of test compounds combined with ceftazidime (8 μg/mL) for bacteriostasis,[8],B (B: 8-16 μg/mL)
same,The minimum concentration of test compounds combined with imipenem (4 μg/mL) for bacteriostasis,[9],C (C: 16-128 μg/mL)
same,The minimum concentration of test compounds combined with imipenem (4 μg/mL) for bacteriostasis,[10],A (A: <8 μg/mL)
same,The minimum concentration of test compounds combined with imipenem (4 μg/mL) for bacteriostasis,[11],A (A: <8 μg/mL)
same,The minimum concentration of test compounds combined with imipenem (4 μg/mL) for bacteriostasis,[12],A (A: <8 μg/mL)
same,The minimum concentration of test compounds combined with imipenem (4 μg/mL) for bacteriostasis,[13],A (A: <8 μg/mL)
same,The minimum concentration of test compounds combined with imipenem (4 μg/mL) for bacteriostasis,[14],A (A: <8 μg/mL)
same,The minimum concentration of test compounds combined with imipenem (4 μg/mL) for bacteriostasis,[15],A (A: <8 μg/mL)
same,The minimum concentration of test compounds combined with imipenem (4 μg/mL) for bacteriostasis,[16],A (A: <8 μg/mL)
"NC1CC(c2cc([C@@H]3CC4(CC4)[C@@H]4CN3C(=O)N4OS(=O)(=O)O)no2)C1 (single isomer, unassigned) [Example 52]",The minimum concentration of test compounds combined with ceftazidime (8 μg/mL) for bacteriostasis,[1],C (C: 16-128 μg/mL)
same,The minimum concentration of test compounds combined with ceftazidime (8 μg/mL) for bacteriostasis,[2],A (A: <8 μg/mL)
same,The minimum concentration of test compounds combined with ceftazidime (8 μg/mL) for bacteriostasis,[3],A (A: <8 μg/mL)
same,The minimum concentration of test compounds combined with ceftazidime (8 μg/mL) for bacteriostasis,[4],B (B: 8-16 μg/mL)
same,The minimum concentration of test compounds combined with ceftazidime (8 μg/mL) for bacteriostasis,[5],B (B: 8-16 μg/mL)
same,The minimum concentration of test compounds combined with ceftazidime (8 μg/mL) for bacteriostasis,[6],B (B: 8-16 μg/mL)
same,The minimum concentration of test compounds combined with ceftazidime (8 μg/mL) for bacteriostasis,[7],A (A: <8 μg/mL)
same,The minimum concentration of test compounds combined with ceftazidime (8 μg/mL) for bacteriostasis,[8],C (C: 16-128 μg/mL)
same,The minimum concentration of test compounds combined with imipenem (4 μg/mL) for bacteriostasis,[9],C (C: 16-128 μg/mL)
same,The minimum concentration of test compounds combined with imipenem (4 μg/mL) for bacteriostasis,[10],A (A: <8 μg/mL)
same,The minimum concentration of test compounds combined with imipenem (4 μg/mL) for bacteriostasis,[11],A (A: <8 μg/mL)
same,The minimum concentration of test compounds combined with imipenem (4 μg/mL) for bacteriostasis,[12],A (A: <8 μg/mL)
same,The minimum concentration of test compounds combined with imipenem (4 μg/mL) for bacteriostasis,[13],A (A: <8 μg/mL)
same,The minimum concentration of test compounds combined with imipenem (4 μg/mL) for bacteriostasis,[14],A (A: <8 μg/mL)
same,The minimum concentration of test compounds combined with imipenem (4 μg/mL) for bacteriostasis,[15],A (A: <8 μg/mL)
same,The minimum concentration of test compounds combined with imipenem (4 μg/mL) for bacteriostasis,[16],A (A: <8 μg/mL)
"O=C1N2C[C@H](N1OS(=O)(=O)O)C1(CC1)C[C@H]2c1cc(COC2CNC2)on1 [Example 50, (1R,4S)-4-(5-((azetidin-3-yloxy)methyl)isoxazol-3-yl)-6-oxo-5,7-diazaspiro[bicycle [3.2.1]octane-2,1′-cyclopropan]-7-yl sulfate]",The minimum concentration of test compounds combined with ceftazidime (8 μg/mL) for bacteriostasis,[1],C (C: 16-128 μg/mL)
same,The minimum concentration of test compounds combined with ceftazidime (8 μg/mL) for bacteriostasis,[2],A (A: <8 μg/mL)
same,The minimum concentration of test compounds combined with ceftazidime (8 μg/mL) for bacteriostasis,[3],A (A: <8 μg/mL)
same,The minimum concentration of test compounds combined with ceftazidime (8 μg/mL) for bacteriostasis,[4],A (A: <8 μg/mL)
same,The minimum concentration of test compounds combined with ceftazidime (8 μg/mL) for bacteriostasis,[5],B (B: 8-16 μg/mL)
same,The minimum concentration of test compounds combined with ceftazidime (8 μg/mL) for bacteriostasis,[6],A (A: <8 μg/mL)
same,The minimum concentration of test compounds combined with ceftazidime (8 μg/mL) for bacteriostasis,[7],A (A: <8 μg/mL)
same,The minimum concentration of test compounds combined with ceftazidime (8 μg/mL) for bacteriostasis,[8],B (B: 8-16 μg/mL)
same,The minimum concentration of test compounds combined with imipenem (4 μg/mL) for bacteriostasis,[9],C (C: 16-128 μg/mL)
same,The minimum concentration of test compounds combined with imipenem (4 μg/mL) for bacteriostasis,[10],A (A: <8 μg/mL)
same,The minimum concentration of test compounds combined with imipenem (4 μg/mL) for bacteriostasis,[11],A (A: <8 μg/mL)
same,The minimum concentration of test compounds combined with imipenem (4 μg/mL) for bacteriostasis,[12],A (A: <8 μg/mL)
same,The minimum concentration of test compounds combined with imipenem (4 μg/mL) for bacteriostasis,[13],A (A: <8 μg/mL)
same,The minimum concentration of test compounds combined with imipenem (4 μg/mL) for bacteriostasis,[14],A (A: <8 μg/mL)
same,The minimum concentration of test compounds combined with imipenem (4 μg/mL) for bacteriostasis,[15],A (A: <8 μg/mL)
same,The minimum concentration of test compounds combined with imipenem (4 μg/mL) for bacteriostasis,[16],A (A: <8 μg/mL)
